Earlier results, collected in patent publication US8614228B2, “Quinone prodrug compositions and methods of use” (ArQule, Inc., priority 2004, dated 2013).

Test system: normal fresh or proliferating human PBMC

Q: Which cytotoxic effects does the source give for `CC1(C)CCC2=C(O1)c1ccccc1C(=O)C2=O` [β-lapachone, 3,4-dihydro-2,2-dimethyl-2H-naphtho[1,2-b]pyran-5,6-dione] here?
A: No cytotoxic effects were observed
